Test results taken from patent US7968584B2, “Substituted arylpyrazoles” (Pfizer Inc., priority 2005, dated 2011).

tested on: Ctenocephalides felis; test: flea membrane feed test; settings: Ctenocephalides felis; in vitro, adult cat fleas fed 2 hours through parafilm membrane on citrated dog blood containing compound; percentage killed recorded after overnight storage; dose responses n=5; read-out: Flea feed ED80 results
Method: The flea membrane feed test is used to measure the biological activities of the compounds claimed. The assay involves in vitro testing against Ctenocephalides felis conducted according to the following general procedure.
Fleas are cultured in vitro using dog blood. 25-30 adult Ctenocephalides felis (cat flea) were collected and placed in a test chamber (50 ml polystyrene tube with fine nylon mesh sealing the end). Citrated dog blood was prepared by adding aqueous sodium citrate solution (10 ml, 20% w/v, 20 g sodium citrate in 100 ml water) to dog blood (250 ml). Test compounds were dissolved in dimethylsulfoxide to give a working stock solution of 4 mg/ml. The stock solution (12.5 μl) was added to citrated dog blood (5 ml) to give an initial test concentration of 10 μg/ml. For testing at 30 µg/ml, working stock solutions of 12 mg/ml were prepared.
Citrated dog blood containing the test compound (5 ml, 100 μg/ml) was placed into a plastic Petri dish lid, which was kept at 37° C. on a heated pad. Parafilm was stretched over the open top to form a tight membrane for the fleas to feed through. The test chamber containing the fleas was placed carefully onto the parafilm membrane and the fleas commenced feeding.
The fleas were allowed to feed for 2 hours and the test chambers were then removed and stored overnight at room temperature.
The fleas were observed and the percentage of fleas killed recorded. Compounds were initially tested at 100 μg/ml, wherefrom relevant dose responses (100, 30, 10, 3, 1, 0.3, 0.1 μg/ml) were conducted and repeated n=5. Data was plotted to generate ED80, ED90 & ED95 values.

Row | Compound | EC80
1 | CS(=O)(=O)C1(c2c(C#N)nn(-c3c(Cl)cc(S(F)(F)(F)(F)F)cc3Cl)c2N)CC1 [Example 1, 5-amino-1-[2,6-dichloro-4-pentafluorothiophenyl]-4-[1-(methylsulfonyl)cyclopropyl]-1H-pyrazole-3-carbonitrile] | ≤ 1 µg/mL
2 | N#Cc1nn(-c2c(Cl)cc(C(F)(F)F)cc2Cl)c(N)c1C1(C(N)=O)CC1 [Example 2, 1-{5-amino-3-cyano-1-[2,6-dichloro-4-(trifluoromethyl)phenyl]-1H-pyrazol-4-yl}cyclopropanecarboxamide] | ≤ 1 µg/mL
3 | N#Cc1nn(-c2c(Cl)cc(S(F)(F)(F)(F)F)cc2Cl)c(NCCF)c1C1(C(N)=O)CC1 [Example 16, 1-{3-cyano-1-[2,6-dichloro-4-pentafluorothiophenyl]-5-[(2-fluoroethyl)amino]-1H-pyrazol-4-yl}cyclopropanecarboxamide] | ≤ 1 µg/mL
4 | N#Cc1nn(-c2c(Cl)cc(S(F)(F)(F)(F)F)cc2Cl)c(N)c1C1(C(N)=O)CC1(Cl)Cl (stereo not shown) [Example 18, 1-{5-amino-3-cyano-1-[2,6-dichloro-4-pentafluorothiophenyl]-1H-pyrazol-4-yl}-2,2-dichlorocyclopropanecarboxamide] | ≤ 1 µg/mL
5 | N#Cc1nn(-c2c(Cl)cc(S(F)(F)(F)(F)F)cc2Cl)c(NCC2CC2)c1C1(C(=O)NCc2ccncc2)CC1 [Example 19, 1-{3-cyano-5-[(cyclopropylmethyl)amino]-1-[2,6-dichloro-4-pentafluorothiophenyl]-1H-pyrazol-4-yl}-N-(pyridin-4-ylmethyl)cyclopropanecarboxamide] | ≤ 1 µg/mL
6 | CC(C)OC(=O)Nc1c(C2(C(N)=O)CC2)c(C#N)nn1-c1c(Cl)cc(S(F)(F)(F)(F)F)cc1Cl [Example 20, isopropyl {4-[1-(aminocarbonyl)cyclopropyl]-3-cyano-1-[2,6-dichloro-4-pentafluorothiophenyl]-1H-pyrazol-5-yl}carbamate] | ≤ 1 µg/mL
7 | N#Cc1nn(-c2c(Cl)cc(S(F)(F)(F)(F)F)cc2Cl)c(NC(=O)OCC2(CF)CC2)c1C1(C(N)=O)CC1 [Example 27, [1-(fluoromethyl)cyclopropyl]methyl {4-[1-(aminocarbonyl)cyclopropyl]-3-cyano-1-[2,6-dichloro-4-pentafluorothiophenyl]-1H-pyrazol-5-yl}carbamate] | ≤ 1 µg/mL
8 | CCOC(=O)Nc1c(C2(C(N)=O)CC2)c(C#N)nn1-c1c(Cl)cc(OC(F)(F)F)cc1Cl [Example 37, ethyl {4-[1-(aminocarbonyl)cyclopropyl]-3-cyano-1-[2,6-dichloro-4-(trifluoromethoxy)phenyl]-1H-pyrazol-5-yl}carbamate] | ≤ 1 µg/mL
9 | N#Cc1nn(-c2c(Cl)cc(S(F)(F)(F)(F)F)cc2Cl)c(Cl)c1C1(C(N)=O)CC1 [Example 86, 1-{5-chloro-3-cyano-1-[2,6-dichloro-4-pentafluorothiophenyl]-1H-pyrazol-4-yl}cyclopropanecarboxamide] | ≤ 1 µg/mL

same assay, conditions: in vitro, adult cat fleas fed 2 hours through parafilm membrane on citrated dog blood containing compound; percentage killed recorded after overnight storage; dose responses n=5

Row | Compound | Flea feed ED80 results
10 | N#Cc1nn(-c2c(Cl)cc(S(F)(F)(F)(F)F)cc2Cl)c(N)c1C1(C#N)CC1 [Example 11, 5-amino-4-(1-cyanocyclopropyl)-1-[2,6-dichloro-4-pentafluorothiophenyl]-1H-pyrazole-3-carbonitrile] | ≦1 μg/ml
11 | N#Cc1nn(-c2c(Cl)cc(S(F)(F)(F)(F)F)cc2Cl)c(NCCC(N)=O)c1C1(C(N)=O)CC1 [Example 32, N˜3˜-{4-[1-(aminocarbonyl)cyclopropyl]-3-cyano-1-[2,6-dichloro-4-pentafluorothiophenyl]-1H-pyrazol-5-yl}-beta-alaninamide] | ≦1 μg/ml
12 | N#Cc1nn(-c2c(Cl)cc(S(F)(F)(F)(F)F)cc2Cl)c(NCC2CC2)c1C1(C(=O)NCc2ccccn2)CC1 [Example 45, 1-{3-cyano-5-[(cyclopropylmethyl)amino]-1-[2,6-dichloro-4-pentafluorothiophenyl]-1H-pyrazol-4-yl}-N-(pyridin-2-ylmethyl)cyclopropanecarboxamide] | ≦1 μg/ml
13 | N#Cc1nn(-c2c(Cl)cc(S(F)(F)(F)(F)F)cc2Cl)c(CNC(=O)OCC2CC2)c1C1(C(N)=O)CC1 [Example 101, cyclopropylmethyl {4-[1-(aminocarbonyl)cyclopropyl]-3-cyano-1-[2,6-dichloro-4-pentafluorothiophenyl]-1H-pyrazol-5-yl}methylcarbamate] | ≦1 μg/ml
